How the values were obtained:
human V2 receptor = biological target: T1, human V2 receptor (Homo sapiens, UniProt P30518); assay: Cellular in vitro assay for determining vasopressin receptor activity, V2 receptor cell line (CRE-luciferase); type: cell-based; conditions: CHO cell line transfected with human V2 receptor; [Arg8]-vasopressin at EC50; compounds of the invention (Table 1A); read-out: IC50 hV2
T1 construct: expressed in transfected cells; host or cells: CHO K1 (ATCC) expressing firefly luciferase under a CRE-responsive promoter
T1 sequence (P30518 whole entry): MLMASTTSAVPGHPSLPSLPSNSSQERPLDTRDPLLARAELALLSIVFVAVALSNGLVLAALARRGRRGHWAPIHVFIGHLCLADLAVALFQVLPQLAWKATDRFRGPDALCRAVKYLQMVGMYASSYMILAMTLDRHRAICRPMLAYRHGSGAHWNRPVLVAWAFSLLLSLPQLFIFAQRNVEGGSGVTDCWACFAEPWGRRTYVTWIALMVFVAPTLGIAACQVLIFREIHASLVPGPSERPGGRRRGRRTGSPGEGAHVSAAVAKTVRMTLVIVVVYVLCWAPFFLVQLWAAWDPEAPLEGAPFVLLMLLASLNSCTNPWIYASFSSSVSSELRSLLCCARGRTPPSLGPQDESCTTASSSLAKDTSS
How it was run: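 CHO K1 cells stably expressing human V2 receptor with CRE-driven firefly luciferase, plated the day before in DMEM/F12 with 2% FCS at 37° C. Receptor activation raises cAMP and luciferase expression; after Triton lysis and luciferin addition, luminescence is read and IC50 values derived.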

conscious rats = assay: Diuresis investigations in conscious rats kept in metabolism cages; type: in vivo, Wistar rats; conditions: Rattus norvegicus, po, read-out: Urinary volume; for response vs control in vivo at 1 mg/kg: dosage p.o. 1.0 mg/kg (Table 2A); for response vs control in vivo at 0.3 mg/kg: dosage p.o. 0.3 mg/kg (Table 2A); for response vs control in vivo at 3 mg/kg: dosage p.o. 3.0 mg/kg (Table 2A)
Experimental: Wistar rats (220-450 g body weight) are kept with free access to feed (Altromin) and drinking water. During the experiment, the animals are kept with free access to drinking water for 4 to 8 or up to 24 hours individually in metabolism cages suitable for rats of this weight class (Tecniplast Deutschland GmbH, D-82383 HohenpeiBenberg). At the beginning of the experiment, the animals are administered the test substance in a volume of 1 to 3 ml/kg body weight of a suitable solvent by means of gavage into the stomach. Control animals only receive solvent. Controls and substance tests are carried out in parallel on the same day. Control groups and substance-dose groups each consist of 4 to 8 animals. During the experiment, the urine excreted by the animals is collected continuously in a receiver at the base of the cage. The volume of urine per time unit is determined separately for each animal, and the concentration of urinary electrolytes is measured by standard methods of flame photometry. Before the beginning of the experiment, the body weight of the individual animals is determined.

human V1a receptor = biological target: T2, human V1a receptor (Homo sapiens, UniProt P37288); assay: Cellular in vitro assay for determining vasopressin receptor activity, V1a receptor cell line (photoprotein luminescence); type: cell-based; conditions: CHO cell line transfected with human V1a receptor; [Arg8]-vasopressin at EC50; compounds of the invention (Table 1A); read-out: IC50 hV1a
T2 construct: expressed in transfected cells; host or cells: CHO K1 (ATCC), also stably transfected with modified aequorin
T2 sequence (P37288 whole entry): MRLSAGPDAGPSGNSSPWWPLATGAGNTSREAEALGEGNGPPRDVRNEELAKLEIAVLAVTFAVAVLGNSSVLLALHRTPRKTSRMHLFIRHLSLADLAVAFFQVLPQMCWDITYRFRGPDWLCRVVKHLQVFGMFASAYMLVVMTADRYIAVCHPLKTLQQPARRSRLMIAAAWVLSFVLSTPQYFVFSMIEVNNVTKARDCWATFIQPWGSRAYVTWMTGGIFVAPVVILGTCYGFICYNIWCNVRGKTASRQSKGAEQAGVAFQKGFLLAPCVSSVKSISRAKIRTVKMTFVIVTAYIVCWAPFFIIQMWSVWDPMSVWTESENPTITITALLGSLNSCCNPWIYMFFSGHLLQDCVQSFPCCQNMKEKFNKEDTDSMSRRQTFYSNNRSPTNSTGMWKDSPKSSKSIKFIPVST

| Structure (SMILES) | IC50 (human V2 receptor) | response vs control in vivo at 1 mg/kg (conscious rats) | IC50 (human V1a receptor) | response vs control in vivo at 0.3 mg/kg (conscious rats) | response vs control in vivo at 3 mg/kg (conscious rats) |
| --- | --- | --- | --- | --- | --- |
| CC(O)c1nc(Cn2nc(-c3ccc(Cl)cc3)n(C[C@H](O)C(F)(F)F)c2=O)nn1-c1cc(F)cc(Cl)c1 (single isomer, unassigned) [Example 14] | 0.4 nM | 753% | 1.3 nM | – | – |
| CC(O)c1nc(Cn2nc(-c3ccc(Cl)cc3)n(C[C@H](O)C(F)(F)F)c2=O)nn1-c1cc(F)cc(Cl)c1 (single isomer, unassigned) [Example 15] | 4.1 nM | – | 38.4 nM | 412% | – |
| CC(O)c1nc(Cn2nc(-c3ccc(Cl)cc3)n(C[C@H](O)C(F)(F)F)c2=O)nn1-c1ccccc1 (single isomer, unassigned) [Example 17] | 3.4 nM | 819% | 2.7 nM | 404% | – |
| Cc1cccc(-n2nc(Cn3nc(-c4ccc(Cl)cc4)n(C[C@H](O)C(F)(F)F)c3=O)nc2C(C)O)c1 (single isomer, unassigned) [Example 29] | 0.2 nM | 983% | 2.9 nM | 404% | – |
| CC(O)c1nc(Cn2nc(-c3ccc(Cl)cc3)n(C[C@H](O)C(F)(F)F)c2=O)nn1-c1cc(Cl)cc(Cl)c1 (single isomer, unassigned) [Example 47] | 3.7 nM | – | 18.9 nM | – | – |
| CC(O)c1nc(Cn2nc(-c3ccc(Cl)cc3)n(C[C@H](O)C(F)(F)F)c2=O)nn1-c1cc(Cl)cc(Cl)c1 (single isomer, unassigned) [Example 48] | 2.4 nM | – | 3.2 nM | – | – |
| CC(O)c1nc(Cn2nc(-c3ccc(Cl)cc3)n(C[C@H](O)C(F)(F)F)c2=O)nn1-c1cc(Cl)ccc1Cl (single isomer, unassigned) [Example 50] | 10 nM | – | 1.3 nM | – | – |
| CC(O)c1nc(Cn2nc(-c3ccc(Cl)cc3)n(C[C@H](O)C(F)(F)F)c2=O)nn1-c1cc(Cl)ccc1Cl (single isomer, unassigned) [Example 51] | 22.3 nM | – | 3 nM | – | – |
| CC(O)c1nc(Cn2nc(-c3ccc(Cl)cc3)n(C[C@H](O)C(F)(F)F)c2=O)nn1-c1cccc(Cl)c1F (single isomer, unassigned) [Example 53] | 1.8 nM | – | 7.9 nM | – | – |
| CC(O)c1nc(Cn2nc(-c3ccc(Cl)cc3)n(C[C@H](O)C(F)(F)F)c2=O)nn1-c1cccc(Cl)c1F (single isomer, unassigned) [Example 54] | 1.6 nM | – | 39.7 nM | – | – |
| CC(O)c1nc(Cn2nc(-c3ccc(Cl)cc3)n(C[C@H](O)C(F)(F)F)c2=O)nn1-c1cccc(OC(F)F)c1 (single isomer, unassigned) [Example 56] | 1.4 nM | – | 2.4 nM | – | – |
| CC(O)c1nc(Cn2nc(-c3ccc(Cl)cc3)n(C[C@H](O)C(F)(F)F)c2=O)nn1-c1cccc(OC(F)F)c1 (single isomer, unassigned) [Example 57] | 8.2 nM | – | 38.2 nM | – | – |
| CC(O)c1nc(Cn2nc(-c3ccc(Cl)cc3)n(C[C@H](O)C(F)(F)F)c2=O)nn1-c1cccc(Cl)c1Cl (single isomer, unassigned) [Example 62] | 0.9 nM | – | 7.8 nM | – | – |
| CC(O)c1nc(Cn2nc(-c3ccc(Cl)cc3)n(C[C@H](O)C(F)(F)F)c2=O)nn1-c1cccc(Cl)c1Cl (single isomer, unassigned) [Example 63] | 1.9 nM | – | 51.6 nM | – | – |
| CC(O)c1nc(Cn2nc(-c3ccc(Cl)cc3)n(C[C@H](O)C(F)(F)F)c2=O)nn1-c1cccc(F)c1F (single isomer, unassigned) [Example 65] | 3.3 nM | – | 2.5 nM | – | – |
| CC(O)c1nc(Cn2nc(-c3ccc(Cl)cc3)n(C[C@H](O)C(F)(F)F)c2=O)nn1-c1cccc(F)c1F (single isomer, unassigned) [Example 66] | 1.9 nM | – | 4 nM | – | – |
| CC(O)c1nc(Cn2nc(-c3ccc(Cl)cc3)n(C[C@H](O)C(F)(F)F)c2=O)nn1-c1cccc(F)c1Cl (single isomer, unassigned) [Example 67] | 2.7 nM | – | 2.1 nM | – | – |
| CC(O)c1nc(Cn2nc(-c3ccc(Cl)cc3)n(C[C@H](O)C(F)(F)F)c2=O)nn1-c1cccc(F)c1Cl (single isomer, unassigned) [Example 68] | 1.3 nM | – | 3.3 nM | – | – |
| Cc1ccccc1-n1nc(Cn2nc(-c3ccc(Cl)cc3)n(C[C@H](O)C(F)(F)F)c2=O)nc1C(C)O (single isomer, unassigned) [Example 70] | 1.1 nM | – | 0.5 nM | 139% | 595% |
| Cc1ccccc1-n1nc(Cn2nc(-c3ccc(Cl)cc3)n(C[C@H](O)C(F)(F)F)c2=O)nc1C(C)O (single isomer, unassigned) [Example 71] | 2.1 nM | – | 0.6 nM | – | – |
| CC(O)c1nc(Cn2nc(-c3ccc(Cl)cc3)n(C[C@H](O)C(F)(F)F)c2=O)nn1-c1ccccc1C(F)(F)F (single isomer, unassigned) [Example 73] | 7 nM | – | 1.1 nM | – | – |
| CC(O)c1nc(Cn2nc(-c3ccc(Cl)cc3)n(C[C@H](O)C(F)(F)F)c2=O)nn1-c1ccccc1C(F)(F)F (single isomer, unassigned) [Example 74] | 24.7 nM | – | 2.2 nM | – | – |
| O=c1n(Cc2nc(CO)n(-c3cccc(Cl)c3)n2)nc(-c2ccc(Cl)cc2)n1C[C@H](O)C(F)(F)F [Example 1, 5-(4-Chlorophenyl)-2-{[1-(3-chlorophenyl)-5-(hydroxymethyl)-1H-1,2,4-triazol-3-yl]methyl}-4-[(2S)-3,3,3-trifluoro-2-hydroxypropyl]-2,4-dihydro-3H-1,2,4-triazol-3-one] | 2.5 nM | – | 6 nM | 194% | 588% |
| O=c1n(Cc2nc(CO)n(-c3cccc(F)c3)n2)nc(-c2ccc(Cl)cc2)n1C[C@H](O)C(F)(F)F [Example 2, 5-(4-Chlorophenyl)-2-{[1-(3-fluorophenyl)-5-(hydroxymethyl)-1H-1,2,4-triazol-3-yl]methyl}-4-[(2S)-3,3,3-trifluoro-2-hydroxypropyl]-2,4-dihydro-3H-1,2,4-triazol-3-one] | 8.7 nM | – | 5 nM | 194% | 588% |
| O=c1n(Cc2nc(CO)n(-c3cc(F)cc(F)c3)n2)nc(-c2ccc(Cl)cc2)n1C[C@H](O)C(F)(F)F [Example 7, 5-(4-Chlorophenyl)-2-{[1-(3,5-difluorophenyl)-5-(hydroxymethyl)-1H-1,2,4-triazol-3-yl]methyl}-4-[(2S)-3,3,3-trifluoro-2-hydroxypropyl]-2,4-dihydro-3H-1,2,4-triazol-3-one] | 2.6 nM | – | 7.6 nM | – | – |
| O=c1n(Cc2nc(CO)n(-c3ccccc3C(F)(F)F)n2)nc(-c2ccc(Cl)cc2)n1C[C@H](O)C(F)(F)F [Example 8, 5-(4-Chlorophenyl)-2-({5-(hydroxymethyl)-1-[2-(trifluoromethyl)phenyl]-1H-1,2,4-triazol-3-yl}-methyl)-4-[(2S)-3,3,3-trifluoro-2-hydroxypropyl]-2,4-dihydro-3H-1,2,4-triazol-3-one] | 10.7 nM | – | 1.2 nM | – | – |
| O=c1n(Cc2nc(CO)n(-c3cc(F)ccc3Cl)n2)nc(-c2ccc(Cl)cc2)n1C[C@H](O)C(F)(F)F [Example 9, 2-{[1-(2-Chloro-5-fluorophenyl)-5-(hydroxymethyl)-1H-1,2,4-triazol-3-yl]methyl}-5-(4-chlorophenyl)-4-[(2S)-3,3,3-trifluoro-2-hydroxypropyl]-2,4-dihydro-3H-1,2,4-triazol-3-one] | 2.3 nM | – | 0.4 nM | – | – |
| C[C@@H](O)c1nc(Cn2nc(-c3ccc(Cl)cc3)n(C[C@H](O)C(F)(F)F)c2=O)nn1-c1cccc(F)c1 [Example 77, 5-(4-Chlorophenyl)-2-({1-(3-fluorophenyl)-5-[(1R)-1-hydroxyethyl]-1H-1,2,4-triazol-3-yl}-methyl)-4-[(2S)-3,3,3-trifluoro-2-hydroxypropyl]-2,4-dihydro-3H-1,2,4-triazol-3-one] | 13.5 nM | – | 12.5 nM | – | – |
| C[C@@H](O)c1nc(Cn2nc(-c3ccc(Cl)cc3)n(C[C@H](O)C(F)(F)F)c2=O)nn1-c1cccc(Cl)c1 [Example 80, 5-(4-Chlorophenyl)-2-({1-(3-chlorophenyl)-5-[(1R)-1-hydroxyethyl]-1H-1,2,4-triazol-3-yl}-methyl)-4-[(2S)-3,3,3-trifluoro-2-hydroxypropyl]-2,4-dihydro-3H-1,2,4-triazol-3-one] | 5.1 nM | – | 46.3 nM | – | – |
